Test results published in paper PMC5911580, “YL143, a novel mutant selective irreversible EGFR inhibitor, overcomes EGFR^L858R, T790M‐mutant resistance in vitro and in vivo” (Cancer Medicine, 2018).

Assays:
[1] = target: IGF1R (Homo sapiens, UniProt P08069); test: FRET-based Z'-Lyte kinase assay, IGF1R; format: biochemical; details: AV ± SD; 1.5 h incubation
Procedure: (§1) The kinase activity assay was performed and optimized according to the instructions of Z’‐LYTE™ kinase assay kits from the manufacturer (PV4879, Life, America). In our experiments, 10 concentration gradients from 0.01 nmol/L to 1.0 μmol/L were used for all the compounds.

[2] = target: IR (Homo sapiens, UniProt P06213); test: FRET-based Z'-Lyte kinase assay, IR; format: biochemical; details: AV ± SD; 1.5 h incubation
Sequence of IR (P06213 28-1382): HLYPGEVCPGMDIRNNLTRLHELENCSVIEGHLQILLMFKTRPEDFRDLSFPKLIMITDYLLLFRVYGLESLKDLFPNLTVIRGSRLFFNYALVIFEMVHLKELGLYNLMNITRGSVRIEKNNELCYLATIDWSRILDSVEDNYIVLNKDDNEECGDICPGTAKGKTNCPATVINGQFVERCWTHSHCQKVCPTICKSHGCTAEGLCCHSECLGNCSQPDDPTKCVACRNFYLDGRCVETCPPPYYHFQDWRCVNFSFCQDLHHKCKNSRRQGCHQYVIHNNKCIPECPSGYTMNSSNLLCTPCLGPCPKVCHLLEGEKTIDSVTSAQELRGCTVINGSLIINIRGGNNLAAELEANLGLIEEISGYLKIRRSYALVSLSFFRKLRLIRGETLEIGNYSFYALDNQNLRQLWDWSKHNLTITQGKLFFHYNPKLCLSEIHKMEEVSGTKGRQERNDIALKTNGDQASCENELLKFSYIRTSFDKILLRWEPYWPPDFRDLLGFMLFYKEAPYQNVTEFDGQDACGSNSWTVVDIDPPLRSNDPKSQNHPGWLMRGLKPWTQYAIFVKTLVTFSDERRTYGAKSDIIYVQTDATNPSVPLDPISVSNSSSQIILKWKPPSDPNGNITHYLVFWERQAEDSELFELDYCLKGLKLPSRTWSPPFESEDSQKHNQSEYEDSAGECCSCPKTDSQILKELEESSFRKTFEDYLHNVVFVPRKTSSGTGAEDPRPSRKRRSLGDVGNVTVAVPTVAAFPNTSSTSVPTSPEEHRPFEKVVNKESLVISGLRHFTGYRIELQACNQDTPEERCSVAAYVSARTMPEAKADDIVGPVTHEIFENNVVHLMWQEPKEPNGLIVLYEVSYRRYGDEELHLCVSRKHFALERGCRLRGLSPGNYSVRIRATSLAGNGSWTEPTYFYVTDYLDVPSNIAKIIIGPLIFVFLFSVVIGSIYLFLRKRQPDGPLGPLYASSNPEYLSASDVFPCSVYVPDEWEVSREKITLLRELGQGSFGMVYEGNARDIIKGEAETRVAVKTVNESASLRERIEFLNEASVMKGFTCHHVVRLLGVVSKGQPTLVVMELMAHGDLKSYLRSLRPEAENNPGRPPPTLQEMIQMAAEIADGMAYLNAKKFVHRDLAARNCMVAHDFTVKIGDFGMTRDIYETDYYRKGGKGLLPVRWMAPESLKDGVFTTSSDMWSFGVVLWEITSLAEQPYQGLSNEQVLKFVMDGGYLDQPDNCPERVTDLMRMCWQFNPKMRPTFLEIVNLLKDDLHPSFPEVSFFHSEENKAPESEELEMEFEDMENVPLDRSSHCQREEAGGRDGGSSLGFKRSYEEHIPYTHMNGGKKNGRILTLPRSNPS
Procedure: as §1

[3] = tested on: BaF3-EGFR ^L858R; test: CCK-8 assay, BaF3-EGFR L858R stable cells; format: cell-based; details: Ba/F3 EGFR-L858R; CCK-8; AV±SD; read-out: anti-proliferative activity BaF3-EGFR L858R
Procedure: Cells were seeded into 96‐well plates at a density of 1500~3000/well in complete medium overnight. Then, cells were treated with various concentrations (0.01~1000 nmol/L) of YL143 for additional 3 days. Viable cell numbers were determined by Cell Counting Kit 8 (CCK8, CK04, Dojindo Laboratories, Japan). Each assay consisted of three replicate wells and repeated at least three times. […] Each IC50 value was expressed as mean ± SD.
The anti-proliferative activities of the compounds were evaluated using CCK-8 assay. The data were means from at least four independent experiments.

[4] = target: AKT1 (Homo sapiens, UniProt P31749); test: Z'-Lyte kinase panel, AKT1; format: biochemical; details: 1.5 hrs incubation
Sequence of AKT1 (P31749 whole entry, species assumed): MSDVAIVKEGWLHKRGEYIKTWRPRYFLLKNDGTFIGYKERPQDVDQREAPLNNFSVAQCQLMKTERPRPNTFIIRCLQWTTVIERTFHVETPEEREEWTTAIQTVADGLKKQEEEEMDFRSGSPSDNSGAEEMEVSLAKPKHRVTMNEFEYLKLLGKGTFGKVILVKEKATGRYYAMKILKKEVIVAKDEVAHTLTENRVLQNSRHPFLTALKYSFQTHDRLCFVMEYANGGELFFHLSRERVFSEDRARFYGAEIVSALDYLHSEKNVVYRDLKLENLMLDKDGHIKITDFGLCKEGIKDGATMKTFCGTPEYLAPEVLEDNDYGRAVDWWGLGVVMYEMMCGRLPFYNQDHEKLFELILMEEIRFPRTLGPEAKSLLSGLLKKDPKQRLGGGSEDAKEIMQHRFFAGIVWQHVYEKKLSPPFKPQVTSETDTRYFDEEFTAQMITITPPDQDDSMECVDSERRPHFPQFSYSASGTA
Procedure: (§2) Kinase activity assays were performed using the FRET-based Z′-Lyte assay according to the manufacturer’s instructions. The compounds were incubated with the kinase reaction mixture for 1.5 hrs before measurement. The data are means from two independent experiments and the variations are below 20%.

[5] = target: PDGFRB (Homo sapiens, UniProt P09619); test: Z'-Lyte kinase panel, PDGFRB; format: biochemical; details: 1.5 hrs incubation
Sequence of PDGFRB (P09619 33-1106, species assumed): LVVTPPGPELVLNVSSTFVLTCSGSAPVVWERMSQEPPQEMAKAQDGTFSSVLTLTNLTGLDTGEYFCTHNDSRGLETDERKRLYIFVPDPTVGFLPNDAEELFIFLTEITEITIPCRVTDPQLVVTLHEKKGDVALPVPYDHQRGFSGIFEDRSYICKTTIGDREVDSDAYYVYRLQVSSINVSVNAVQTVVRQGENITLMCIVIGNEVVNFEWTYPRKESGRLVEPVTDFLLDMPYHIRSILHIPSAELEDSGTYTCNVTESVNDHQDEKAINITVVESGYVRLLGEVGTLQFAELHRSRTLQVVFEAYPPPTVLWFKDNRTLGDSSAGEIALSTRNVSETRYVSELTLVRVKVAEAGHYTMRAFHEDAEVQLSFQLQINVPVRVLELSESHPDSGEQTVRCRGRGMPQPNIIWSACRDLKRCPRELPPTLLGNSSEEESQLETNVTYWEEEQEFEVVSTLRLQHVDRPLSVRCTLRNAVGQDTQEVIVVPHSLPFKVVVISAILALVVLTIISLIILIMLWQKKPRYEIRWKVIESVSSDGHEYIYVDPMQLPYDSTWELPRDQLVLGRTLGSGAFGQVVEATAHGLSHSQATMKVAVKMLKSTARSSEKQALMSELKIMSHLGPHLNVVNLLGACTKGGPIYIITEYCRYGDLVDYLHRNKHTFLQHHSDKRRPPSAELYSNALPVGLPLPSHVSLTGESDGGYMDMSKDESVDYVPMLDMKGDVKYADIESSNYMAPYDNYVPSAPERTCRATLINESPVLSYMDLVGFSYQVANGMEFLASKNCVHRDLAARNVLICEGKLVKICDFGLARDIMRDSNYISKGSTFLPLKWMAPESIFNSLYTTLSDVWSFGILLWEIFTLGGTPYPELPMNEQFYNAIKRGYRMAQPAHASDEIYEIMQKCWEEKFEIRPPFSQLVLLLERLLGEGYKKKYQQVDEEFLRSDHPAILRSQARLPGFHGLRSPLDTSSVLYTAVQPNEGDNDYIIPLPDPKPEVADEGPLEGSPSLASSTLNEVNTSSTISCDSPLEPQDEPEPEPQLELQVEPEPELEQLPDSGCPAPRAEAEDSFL
Procedure: as §2

[6] = target: T1, EGFR (Homo sapiens, UniProt P00533); test: Z'-Lyte kinase panel, EGFR; format: biochemical; details: 1.5 hrs incubation
T1 construct: purchased Invitrogen
Procedure: as §1, with “All EGFR (WT, L858R, L858R/T790M, etc.) recombinant human protein was purchased from Invitrogen. The” for “The”
as §2

[7] = tested on: H1975 cells; test: Cell cycle analysis by flow cytometry (propidium iodide); format: cell-based, human
Procedure: The effect of YL143 to induce cell cycle arrest and apoptosis in H1975 cells was investigated by flow cytometry analysis. […] Treatment with 300 nmol/L of YL143 for 48 h led to 82.11% G0/G1 phase arrest and 34.1% apoptosis. […] (Fig. 3C).
Figure 3 YL143 induces G0/G1 cell cycle arrest and apoptosis in H1975 cells. (A) YL143 induces G0/G1 cell cycle arrest in H1975 cells H1975 cells were treated with 3, 30 or 300 nmol/L for 48 h before DNA labeling by propidium iodide and cell cycle analysis by flow cytometry. (B) YL143 induces apoptosis in H1975 cells. H1975 cells were treated with 3, 30 or 300 nmol/L for 48 h before DNA labeling by Annexin V and 7‐AAD and cell apoptosis analysis by flow cytometry. (C) The effect of YL143 on the expression of CDK4, Cyclin D2, CDK2, Cyclin E, Caspase‐9 and Caspase‐3 was tested by western blotting. The cells were treated with YL143 from 3 to 300 nmol/L for 48 h. Representative results are shown and similar results were obtained in three other independent trials. […]

[8] = target: T2, EGFR^L858R/T790M (Homo sapiens, UniProt P00533, L858R/T790M); test: Compound washout assay on H1975 cells (Western blot); format: cell-based; details: 100 nmol/L for 4 h, then washout, 24 h
Procedure: Cells were treated with various concentrations of compound for designed time. Then, cells were lysed using 1 × SDS sample lysis buffer (CST recommended) with protease and phosphatase inhibitors. Cell lysates were loaded and electrophoresed onto 8–12% SDS‐PAGE gel, and then, separated proteins were transferred to a PVDF film. The film was blocked with 5% fat‐free milk in TBS solution containing 0.5% Tween‐20 for 4 h at room temperature and then incubated with corresponding primary antibody (1:1000–1:200) overnight at 4°C. After washing with TBST, HRP‐conjugated secondary antibody was incubated for 2 h. And the protein signals were visualized by ECL Western Blotting Detection Kit (Thermo Scientific, Waltham, MA) and detected with Amersham Imager 600 system (GE, America).
Cells were treated with or without compound YL143 for 4 h at indicated concentration, respectively. Cells were harvested for Western blot analysis. […] NCI‐H1975 cells were treated with or without compound YL143(100 nmol/L) for 4 h, and then the medium with compound was removed and fresh medium was added. At the indicated time points, cells were harvest and proteins were extracted and subjected to Western blot analysis.

[9] = target: T2, EGFR^L858R/T790M; test: FRET-based Z'-Lyte kinase assay, EGFR L858R/T790M; format: biochemical; parameters: purchased Invitrogen
Procedure: as §1

Sequence of IGF1R (P08069 31-1367, species assumed): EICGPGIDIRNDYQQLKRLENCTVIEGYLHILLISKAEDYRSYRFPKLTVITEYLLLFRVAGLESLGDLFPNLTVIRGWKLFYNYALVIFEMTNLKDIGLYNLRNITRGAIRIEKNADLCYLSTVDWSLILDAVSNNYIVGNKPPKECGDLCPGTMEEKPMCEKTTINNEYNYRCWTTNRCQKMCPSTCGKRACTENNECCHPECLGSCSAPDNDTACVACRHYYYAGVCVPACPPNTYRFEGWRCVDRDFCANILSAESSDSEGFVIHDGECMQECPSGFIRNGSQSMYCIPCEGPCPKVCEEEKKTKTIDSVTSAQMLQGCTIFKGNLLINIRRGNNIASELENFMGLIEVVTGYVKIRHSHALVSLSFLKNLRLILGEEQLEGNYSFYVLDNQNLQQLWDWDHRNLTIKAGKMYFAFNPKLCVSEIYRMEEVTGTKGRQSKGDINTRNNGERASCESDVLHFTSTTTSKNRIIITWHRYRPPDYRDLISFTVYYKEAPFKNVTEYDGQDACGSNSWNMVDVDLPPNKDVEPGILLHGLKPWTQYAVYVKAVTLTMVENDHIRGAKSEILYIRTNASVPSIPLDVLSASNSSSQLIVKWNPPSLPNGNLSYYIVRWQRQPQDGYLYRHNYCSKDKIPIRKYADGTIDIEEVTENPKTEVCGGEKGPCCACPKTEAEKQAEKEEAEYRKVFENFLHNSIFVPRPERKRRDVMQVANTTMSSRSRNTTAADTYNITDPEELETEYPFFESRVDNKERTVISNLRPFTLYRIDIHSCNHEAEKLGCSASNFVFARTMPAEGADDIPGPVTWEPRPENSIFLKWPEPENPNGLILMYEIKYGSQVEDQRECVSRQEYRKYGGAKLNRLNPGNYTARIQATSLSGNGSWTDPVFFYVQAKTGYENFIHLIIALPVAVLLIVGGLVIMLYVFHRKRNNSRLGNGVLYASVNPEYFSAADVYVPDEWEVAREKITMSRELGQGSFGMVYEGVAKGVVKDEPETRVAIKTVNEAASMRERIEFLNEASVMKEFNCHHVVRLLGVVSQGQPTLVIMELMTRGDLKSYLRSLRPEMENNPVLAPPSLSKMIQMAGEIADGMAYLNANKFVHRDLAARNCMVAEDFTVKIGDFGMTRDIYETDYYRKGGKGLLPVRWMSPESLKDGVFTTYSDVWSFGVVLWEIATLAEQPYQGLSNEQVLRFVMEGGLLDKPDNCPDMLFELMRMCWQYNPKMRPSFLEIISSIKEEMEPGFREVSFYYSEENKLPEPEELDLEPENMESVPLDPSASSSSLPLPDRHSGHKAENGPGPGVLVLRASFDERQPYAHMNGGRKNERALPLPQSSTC

Structure (SMILES): C=CC(=O)Nc1cc(C)cc(-n2c(=O)cc(C)c3cnc(Nc4ccc(N5CCN(C)CC5)cc4OC)nc32)c1 [YL143, N‐(3‐(2‐((2‐Methoxy‐4‐(4‐methylpiperazin‐1‐yl)phenyl)amino)‐5‐methyl‐7‐oxopyrido [2,3‐d]pyrimidin‐8(7H)‐yl)‐5‐methylphenyl)acrylamide]
- IC50 [1]: > 1000 nM
- IC50 [2]: 7.5 ± 0.1 nM
- IC50 [3]: 71 ± 41 nM
- IC50 [4]: > 10 µM
- IC50 [5]: > 10 µM
- IC50 [6]: 35.3 nM
- G0/G1 phase fraction ([7]; 300 nmol/L, 48 h): 82.11%
- cell cycle arrest and apoptosis ([7]; H1975 cells, 30 nmol/L): induces G0/G1 phase arrest and apoptosis
- EGFR^L858R/T790M phosphorylation recovery after withdrawal [8]: no EGFR^L858R/T790M phosphorylation recovery was observed
- IC50 ([9]; AV ± SD, 1.5 h incubation): 2 ± 0.3 nM
- potency factor over CO1686 and osimertinib on EGFR^L858R/T790M ([9]; parallel comparison): 5–7
